These are literature values, as cited in patent publication US8198020B2, “Compositions and methods for enhancing phagocytosis or phagocyte activity” (Potentia Pharmaceuticals, Inc., priority 2003, dated 2012).

This data set has as its system metastatic colorectal cancer. The note with it: patients with metastatic colorectal cancer; prolonged from 15.6.

Consider “Avastin: recombinant monoclonal antibody that binds to VEGF”, for which the median survival was 18.3 months.
